Experiment: Measurement of pKa value (spectrophotometric titration)
Type: physicochemical
Details: DMF/water (1/1) solution, 2×10^−5 mol/l, titrated from pH 2 with NaOH, UV-visible spectrum, read-out: pKa value determined
Protocol: pKa values of the azo dyes described below were determined by the following method; The dye was dissolved in a solution of a DMF/water (1/1) volume ratio to a final concentration of 2×10^−5 mol/l. After the resulting solution was adjusted to pH 2, using 1.0 mol/l hydrochloric acid, the solution was titrated with aqueous 1.0 mol/l sodium hydroxide solution. Recording the change of the visible ultra-violet absorption spectrum, the inflection point was determined by regression analysis.
`CCSc1nsc(/N=N/c2cc(Cl)c(O)cc2Cl)n1` [Dye D-38] gave a pKa of 3.5. In the case of `Cc1nsc(/N=N/c2ccc(O)c(Cl)c2)c1C#N` [Dye D-41], the pKa is reported as 5.02. For `Cc1cc(/N=N/c2snc(C)c2C#N)ccc1O` [Dye D-37], the pKa was 6.37. Work on `CC(C)CSc1nnc(/N=N/c2cc(Cl)c(O)c(Cl)c2Cl)s1` [Dye D-45] yielded a pKa of 2.28. `CC(=O)Nc1cc(/N=N/c2nncs2)ccc1O` [Dye D-29] gave a pKa of 6.04. Work on `Oc1cc(Cl)c(/N=N/c2nc3ccc(Cl)cc3s2)cc1Cl` [Dye D-40] yielded a pKa of 4.46. Work on `Oc1c(Cl)cc(/N=N/c2nncs2)cc1Cl` [Dye D-56] yielded a pKa of 3.56. Compound `Cc1nsc(/N=N/c2cc(F)c(O)c(F)c2)c1C#N` [Dye D-43] has a pKa of 3.9. Compound `CCSc1nsc(/N=N/c2cc(Cl)c(O)c(NC(=O)CC)c2)n1` [Dye D-30] has a pKa of 3.05. In the case of `COc1cc(/N=N/c2snc(C)c2C#N)ccc1O` [Dye D-39], the pKa is reported as 5.52. Compound `CC(=O)Nc1cc(/N=N/c2nncs2)c(NC(C)=O)cc1O` [Dye D-46] has a pKa of 5.15.

Same assay, conditions: DMF/water (1/1), 2×10^−5 mol/l, titrated from pH 2 with NaOH, UV-visible spectrum
For `Cc1cc(/N=N/c2nc(-c3cccc(NS(C)(=O)=O)c3)ns2)cc(NCOc2ccccc2NS(C)(=O)=O)c1O` [Dye D-34], the pKa value determined was 4.39. With `Oc1c(NCOc2ccncc2)cc(/N=N/c2nc(-c3ccccc3)no2)c2ccccc12` [Dye D-49] the pKa value determined was 5.39.

Reference: patent US7083655B2, “Hair dye composition” (Kao Corporation, priority 2002, dated 2006)
